Here are results for 1 compound from article PMC6178282, “Comparative cell biological study of in vitro antitumor and antimetastatic activity on melanoma cells of GnRH-III-containing conjugates modified with short-chain fatty acids” (Beilstein Journal of Organic Chemistry, 2018).

The test system of assay [1] is A2058 cells. As to the kind of experiment: Inhibition assay for phosphatidylinositol 3-kinase (pretreatment with wortmannin or LY294002, alamarBlue viability). Conditions: then compound 10^−5 M for 48 h, from averages of 6 parallels. The class given is cell-based, human. Here is the method:
The association of PI3K activation with the antitumor activity of the conjugates was determined by pretreating the cells with PI3K inhibitors (wortmannin – W and LY294002 – LY). The antitumor effect of the conjugates and Dau on the cells pretreated with PI3K inhibitors or with DMSO (solvent of the inhibitors) was assessed by an alamarBlue-assay after 48 h of incubation. The results of the PI3K-assay were given by calculating the inhibition index as the ratio of the viability of the pretreated and control (DMSO-treated) cell populations being incubated with medium or conjugates (10^−5 M). […]
was measured with LS-50B Luminescence Spectrometer (Perkin Elmer Ltd., Buckinghamshire United Kingdom) by using λ = 560 nm for excitation and λ = 590 nm for detection of the emitted light.
Each data represents the mathematical average of six parallels. The decrease in the fluorescence intensity caused by the different treatments was normalized to the identical control and this value was given as ‘Viability’ in percent. […]
A2058 cells were prepared in 96-well plates as it was aforementioned in ‘Cell proliferation and cytotoxicity measurement’ section. […] The number of viable cells was determined by the alamarBlue-assay as it was described in ‘Cell proliferation and cytotoxicity measurement’ chapter. To analyze the effects of inhibitors on the actions of conjugates, the inhibition index was calculated by […]

The test system of assay [2] is A2058 cells. The assay is described as follows: Cell adhesion measurement, xCELLigence impedimetry. It is filed as cell-based, human. Conditions: Delta CI at 3 h normalized to control, three parallels. From the text:
The first crucial steps in metastasis cascade are the impaired adhesion contacts and in parallel the increased motility of tumor cells. These two events substantially provide for tumor cells to detach from the primary tumor and migrate to the surrounding tissue. Besides the tumor-selective antiproliferative/cytotoxic activity of the conjugates, they could be also desired to have an ability to interfere with the dissemination of cancer cells by modulating their adhesion and migration. In order to evaluate the conjugates as antimetastatic therapeutics, their effects on melanoma cell adhesion were investigated by the impedance-based xCELLigence System. The cell adhesion modulator effects of compounds were characterized by Delta Cell index values. […]
The effect of Dau-GnRH-III conjugates on cell adhesion of model cell was assessed using the xCELLigence SP System ( ACEA Biosciences, San Diego, CA, USA).
The adhesion assay, analogous to the description in [5], was started with a background measurement as mentioned above in the section “Cell proliferation and cytotoxicity measurement”. […] The adhesion of A2058 cells was monitored every 20 sec for at least 12 h at 10 kHz.
The attachment and spreading of model cell were characterized by a time-course study of the Delta CI values. The Delta CI values were calculated by the integrated software (RTCA 2.0). […]

As for `COc1cccc2c1C(=O)c1c(O)c3c(c(O)c1C2=O)C[C@@](O)(C(C)=O)C[C@@H]3O[C@H]1C[C@H](N)[C@H](O)[C@H](C)O1` [daunorubicin], the “inhibition index, LY294002” value in the assay on A2058 cells [1] (A2058 cells pretreated 30 min with LY294002 (15 μM)) is given as 100.7 ± 4.0%. For the same compound, the “inhibition index, wortmannin” value in the assay with A2058 cells [1] (A2058 cells pretreated 30 min with wortmannin (50 nM)) came out at 121.0 ± 8.1%. In the assay with A2058 cells [2] (10^−5 M), the “effect on cell adhesion (Delta Cell index)” value is “decrease”. Besides, the “concentrations at which adhesion of A2058 cells was increased (Delta Cell index)” value in the assay with A2058 cells [2] (tested 10^−8–10^−5 M) is given as 10^−8 to 10^−7 M.
